Assay results published in article PMC3433650 (Journal of neurochemistry, 2012).

Tested on: rat and human α9α10 nAChRs
Test: ACh-evoked currents in Xenopus oocytes expressing rat or human α9α10 nAChRs
Format: cell-based
Conditions: 100 µM ACh

CC(=O)OCC[N+](C)(C)C [ACh, Acetylcholine chloride]
ACh-evoked current, rat vs human α9α10 (in words): generally evoked larger currents in Xenopus oocytes expressing rat α9α10 nAChRs than in oocytes expressing human α9α10 nAChRs
